The text below walks through data of patent publication US9315475B2 (MERCK SHARP & DOHME CORP., priority 2011, dated 2016).

One test has as its system HIV. Particulars: HIV-infected patients, in combination with nucleoside reverse transcriptase inhibitors; cited from earlier work.
In another test the target is T1, wildtype HIV-1 protease (Human immunodeficiency virus type 1 group M subtype B, UniProt P04585).
T1 construct: the wildtype HIV-1 protease (which was expressed in Escherichia coli); made in house; host or cells: Escherichia coli
The experiment in a line: Assay for inhibition of microbial expressed HIV protease (Pepcleav). The class given is biochemical. Particulars: wild type HIV-1 protease expressed in E. coli, peptide substrate, pH 5.5; mean of at least two independent experiments; read-out: Pepcleav. An outline of the steps: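 E. coli-expressed wild-type HIV-1 protease (20 pM) preincubated 30 min at room temperature with inhibitor in pH 5.5 sodium acetate/NaCl/BSA buffer, then 400 μM Val-Ser-Gln-Asn-(βnaphthyl)Ala-Pro-Ile-Val added for 1 h at 30 °C. Quenched with formic acid; product quantified by LC-MS/MS peak area, indinavir internal standard.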

Another test concerns HIV-1 (H9IIIB strain). Briefly: Antiviral acute infection assay in cell culture (Spread). Particulars: Human immunodeficiency virus 1, T-lymphoid, HIV-1 H9IIIB infection of MT-4 human T-lymphoid cells in 10% FBS; mean of at least two independent experiments. The class given is cell-based. The source says: Antiviral Assays in Cell Culture (“Spread”)
Acute Infection Assay (“Spread”) data were generated using HIV-1 (H9IIIB strain) infection of MT-4 human T-lymphoid cells in 10% FBS, and according to the methods disclosed by J. P. Vacca et al, “L-735,524: An orally bioavailable human immunodeficiency virus type 1 protease inhibitor,” Proc. Natl. Acad. Sci. USA, Vol. 91, pp. 4096-4100 (April 1994).

The structures appear in SMILES notation.

For `CC(C)(C)NC(=O)[C@@H]1CN(Cc2cccnc2)CCN1C[C@@H](O)C[C@@H](Cc1ccccc1)C(=O)N[C@H]1c2ccccc2C[C@H]1O` [Indinavir, indinavir], the “effect on HIV viral loads and CD4 cell counts” value in the test with HIV was “highly effective in reducing HIV viral loads and increasing CD4 cell counts”.
`N[C@H](C(=O)Nc1cccc(F)c1CC[C@@H]1CN[C@H](COC(=O)NCC(F)(F)F)CO1)[C@H](c1ccc(F)cc1)c1ccc(Cl)cc1` [Example 273, (βR)-β-(4-chlorophenyl)-4-fluoro-N-(3-fluoro-2-{2-[(2R,5S)-5-({[(2,2,2-trifluoroethyl)carbamoyl]oxy}methyl)morpholin-2-yl]ethyl}phenyl)-L-phenylalaninamide]: the IC50 at wildtype HIV-1 protease turned out to be 0.0014 µM. Further, the EC50 in the test with HIV-1 (H9IIIB strain) stood at 0.02 µM.
As for `N[C@H](C(=O)Nc1cncc(F)c1CC[C@@H]1CN[C@H](COC(=O)NCC(F)(F)F)CO1)[C@H](c1ccc(F)cc1)c1cccc(Cl)c1` [Example 266, (βR)-3-chloro-β-(4-fluorophenyl)-N-(5-fluoro-4-{2-[(2R,5S)-5-({[(2,2,2-trifluoroethyl)carbamoyl]oxy}methyl)morpholin-2-yl]ethyl}pyridin-3-yl)-L-phenylalaninamide], the IC50 at wildtype HIV-1 protease worked out at 0.0031 µM. In the test with HIV-1 (H9IIIB strain), this compound had an EC50 of 0.05 µM.
On to `N[C@H](C(=O)Nc1cncc(F)c1CC[C@@H]1CN[C@H](COC(=O)NCC(F)(F)F)CO1)[C@@H](c1ccc(Cl)cc1)c1cc(F)cc(F)c1` [Example 97, (βS)-β-(4-Chlorophenyl)-3,5-difluoro-N-(5-fluoro-4-{2-[(2R,5S)-5-({[(2,2,2-trifluoroethyl)carbamoyl]oxy}methyl)morpholin-2-yl]ethyl}pyridin-3-yl)-L-phenylalaninamide], for which the IC50 at wildtype HIV-1 protease is 0.0008 µM. Moreover, a half-maximal response in the test with HIV-1 (H9IIIB strain) (EC50) required 0.017 µM.
Consider `N[C@H](C(=O)Nc1cncc(F)c1CC[C@@H]1CN[C@H](COC(=O)NC[C@@H]2CCC(=O)N2)CO1)C(c1ccc(F)cc1)c1ccc(F)cc1` [Example 235, 4-fluoro-N-(5-fluoro-4-{2-[(2R,5S)-5-{[({[(2S)-5-oxopyrrolidin-2-yl]methyl}carbamoyl)oxy]methyl}morpholin-2-yl]ethyl}pyridin-3-yl)-β-(4-fluorophenyl)-L-phenylalaninamide], for which the IC50 at wildtype HIV-1 protease was 0.097 µM. Besides, the EC50 with HIV-1 (H9IIIB strain) is 5 µM.
With `CN1CCC(NC(=O)OC[C@@H]2CO[C@H](CCc3c(F)cncc3NC(=O)[C@@H](N)C(c3ccc(F)cc3)c3ccc(F)cc3)CN2)C1=O` (stereo partly drawn) [Example 252, 4-fluoro-N-(5-fluoro-4-{2-[(2R,5S)-5-({[(1-methyl-2-oxopyrrolidin-3-yl)carbamoyl]oxy}methyl)morpholin-2-yl]ethyl}pyridin-3-yl)-β-(4-fluorophenyl)-L-phenylalaninamide], the IC50 on wildtype HIV-1 protease was 0.0077 µM. The same compound returned an EC50 with HIV-1 (H9IIIB strain) of 0.16 µM.
For `COC(=O)N[C@H](C(=O)Nc1cccc(F)c1CC[C@@H]1CN[C@H](COC(=O)NCC(F)(F)F)CO1)[C@H](c1ccccc1)c1ccc(OC)cc1` [Example 296, (βR)-N-(3-fluoro-2-{2-[(2R,5S)-5-({[(2,2,2-trifluoroethyl)carbamoyl]oxy}methyl)morpholin-2-yl]ethyl}phenyl)-Nα-(methoxy-carbonyl)-O-methyl-β-phenyl-L-tyrosinamide] the same measures were 0.023 µM and 0.12 µM.
`COC(=O)N[C@H](C(=O)Nc1cncc(F)c1CC[C@@H]1CN[C@H](COC(=O)NCC(F)(F)F)CO1)[C@@H](c1ccc(F)cc1)c1cc(F)ccc1F` [Example 300, (βS)-2,5-difluoro-β-(4-fluorophenyl)-N-(5-fluoro-4-{2-[(2R,5S)-5-({[(2,2,2-trifluoroethyl)carbamoyl]oxy}methyl)morpholin-2-yl]ethyl}pyridin-3-yl)-Nα-(methoxycarbonyl)-L-phenylalaninamide]: the IC50 on wildtype HIV-1 protease is 0.0016 µM. Besides, the response with HIV-1 (H9IIIB strain) was half-maximal at 0.018 µM (EC50).

As a reminder, the EC50 is the concentration that produces a half-maximal response.
